Test results taken from ChEMBL document CHEMBL4507256 (2021).

How the values were obtained:
[1] = tested on: Phosphatidylinositol 4,5-bisphosphate 3-kinase catalytic subunit alpha isoform (Homo sapiens), P42336 [E545A]; conditions: Compound concentration 1000.0 nM
[2] = tested on: Receptor-type tyrosine-protein kinase FLT3 (Homo sapiens), P36888 [D835H]; conditions: Compound concentration 1000.0 nM
[3] = target: Ribosomal protein S6 kinase alpha-5 (Homo sapiens) (UniProt O75582); conditions: Compound concentration 1000.0 nM
[4] = target: Mitogen-activated protein kinase 9 (Homo sapiens) (UniProt P45984); conditions: Compound concentration 1000.0 nM
[5] = tested on: Mast/stem cell growth factor receptor Kit (Homo sapiens), P10721 [D816V]; conditions: Compound concentration 1000.0 nM
[6] = target: Serine/threonine-protein kinase 16 (Homo sapiens) (UniProt O75716); conditions: Compound concentration 1000.0 nM
[7] = target: Homeodomain-interacting protein kinase 2 (Homo sapiens) (UniProt Q9H2X6); conditions: Compound concentration 1000.0 nM
[8] = target: G protein-coupled receptor kinase 3 (Homo sapiens) (UniProt P35626); conditions: Compound concentration 1000.0 nM
[9] = tested on: Serine/threonine-protein kinase B-raf (Homo sapiens), P15056 [V600E]; conditions: Compound concentration 1000.0 nM
[10] = tested on: Proto-oncogene tyrosine-protein kinase receptor Ret (Homo sapiens), P07949 [M918T]; conditions: Compound concentration 1000.0 nM
[11] = target: Mitogen-activated protein kinase kinase kinase kinase 3 (Homo sapiens) (UniProt Q8IVH8); conditions: Compound concentration 1000.0 nM
[12] = tested on: Epidermal growth factor receptor (Homo sapiens), P00533 [L858R,T790M]; conditions: Compound concentration 1000.0 nM
[13] = target: Alpha-2B adrenergic receptor (Homo sapiens) (UniProt P18089); conditions: Compound concentration 10.0 uM
[14] = target: Receptor-type tyrosine-protein kinase FLT3 (Homo sapiens) (UniProt P36888); conditions: Compound concentration 1000.0 nM
[15] = target: Serine/threonine-protein kinase PLK4 (Homo sapiens) (UniProt O00444); conditions: Compound concentration 1000.0 nM
[16] = target: Serine/threonine-protein kinase haspin (Homo sapiens) (UniProt Q8TF76); conditions: Compound concentration 1000.0 nM
[17] = tested on: Epidermal growth factor receptor (Homo sapiens), P00533 [UNDEFINED MUTATION]; conditions: Compound concentration 1000.0 nM
[18] = target: Ribosomal protein S6 kinase alpha-2 (Homo sapiens) (UniProt Q15349); conditions: Compound concentration 1000.0 nM
[19] = target: NUAK family SNF1-like kinase 2 (Homo sapiens) (UniProt Q9H093); conditions: Compound concentration 1000.0 nM
[20] = target: Proto-oncogene tyrosine-protein kinase receptor Ret (Homo sapiens) (UniProt P07949); conditions: Compound concentration 1000.0 nM
[21] = target: Phosphatidylinositol 4,5-bisphosphate 3-kinase catalytic subunit gamma isoform (Homo sapiens) (UniProt P48736); conditions: Compound concentration 1000.0 nM
[22] = target: BDNF/NT-3 growth factors receptor (Homo sapiens) (UniProt Q16620); conditions: Compound concentration 1000.0 nM
[23] = target: Myosin light chain kinase, smooth muscle (Homo sapiens) (UniProt Q15746); conditions: Compound concentration 1000.0 nM
[24] = target: BMP-2-inducible protein kinase (Homo sapiens) (UniProt Q9NSY1); conditions: Compound concentration 1000.0 nM
[25] = target: Vascular endothelial growth factor receptor 1 (Homo sapiens) (UniProt P17948); conditions: Compound concentration 1000.0 nM
[26] = target: Histamine H1 receptor (Homo sapiens) (UniProt P35367); conditions: Compound concentration 10.0 uM
[27] = tested on: Phosphatidylinositol 4,5-bisphosphate 3-kinase catalytic subunit alpha isoform (Homo sapiens), P42336 [E545K]; conditions: Compound concentration 1000.0 nM
[28] = target: Serine/threonine-protein kinase MARK1 (Homo sapiens) (UniProt Q9P0L2); conditions: Compound concentration 1000.0 nM
[29] = target: Bone morphogenetic protein receptor type-1B (Homo sapiens) (UniProt O00238); conditions: Compound concentration 1000.0 nM
[30] = target: Alpha-1A adrenergic receptor (Homo sapiens) (UniProt P35348); conditions: Compound concentration 10.0 uM
[31] = target: Phosphatidylinositol 4,5-bisphosphate 3-kinase catalytic subunit beta isoform (Homo sapiens) (UniProt P42338); conditions: Compound concentration 1000.0 nM
[32] = target: T1, Muscarinic acetylcholine receptor M5 (Homo sapiens) (UniProt P08912); conditions: Compound concentration 10.0 uM
T1 sequence (whole entry): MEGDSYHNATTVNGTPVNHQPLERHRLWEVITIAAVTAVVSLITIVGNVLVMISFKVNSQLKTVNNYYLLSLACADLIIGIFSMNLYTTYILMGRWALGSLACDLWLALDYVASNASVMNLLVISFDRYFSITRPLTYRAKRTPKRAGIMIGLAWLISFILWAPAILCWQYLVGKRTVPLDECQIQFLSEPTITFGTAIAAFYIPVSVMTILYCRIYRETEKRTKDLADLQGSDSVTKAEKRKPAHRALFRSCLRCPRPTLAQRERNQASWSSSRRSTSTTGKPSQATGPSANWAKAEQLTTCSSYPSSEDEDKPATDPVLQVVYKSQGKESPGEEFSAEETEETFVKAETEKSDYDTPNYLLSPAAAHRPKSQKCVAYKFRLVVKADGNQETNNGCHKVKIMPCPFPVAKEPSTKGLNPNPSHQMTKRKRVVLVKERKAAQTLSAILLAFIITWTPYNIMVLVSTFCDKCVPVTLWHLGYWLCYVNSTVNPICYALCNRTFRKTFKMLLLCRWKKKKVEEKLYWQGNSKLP

[33] = tested on: Proto-oncogene tyrosine-protein kinase receptor Ret (Homo sapiens), P07949 [V804L]; conditions: Compound concentration 1000.0 nM
[34] = target: Serine/threonine-protein kinase PAK 4 (Homo sapiens) (UniProt O96013); conditions: Compound concentration 1000.0 nM
[35] = target: Mitotic checkpoint serine/threonine-protein kinase BUB1 (Homo sapiens) (UniProt O43683); conditions: Compound concentration 1000.0 nM
[36] = target: Mitogen-activated protein kinase kinase kinase 19 (Homo sapiens) (UniProt Q56UN5); conditions: Compound concentration 1000.0 nM
[37] = target: Cyclin-dependent kinase 11B (Homo sapiens) (UniProt P21127); conditions: Compound concentration 1000.0 nM
Sequence of Cyclin-dependent kinase 11B (Homo sapiens) (P21127 whole entry): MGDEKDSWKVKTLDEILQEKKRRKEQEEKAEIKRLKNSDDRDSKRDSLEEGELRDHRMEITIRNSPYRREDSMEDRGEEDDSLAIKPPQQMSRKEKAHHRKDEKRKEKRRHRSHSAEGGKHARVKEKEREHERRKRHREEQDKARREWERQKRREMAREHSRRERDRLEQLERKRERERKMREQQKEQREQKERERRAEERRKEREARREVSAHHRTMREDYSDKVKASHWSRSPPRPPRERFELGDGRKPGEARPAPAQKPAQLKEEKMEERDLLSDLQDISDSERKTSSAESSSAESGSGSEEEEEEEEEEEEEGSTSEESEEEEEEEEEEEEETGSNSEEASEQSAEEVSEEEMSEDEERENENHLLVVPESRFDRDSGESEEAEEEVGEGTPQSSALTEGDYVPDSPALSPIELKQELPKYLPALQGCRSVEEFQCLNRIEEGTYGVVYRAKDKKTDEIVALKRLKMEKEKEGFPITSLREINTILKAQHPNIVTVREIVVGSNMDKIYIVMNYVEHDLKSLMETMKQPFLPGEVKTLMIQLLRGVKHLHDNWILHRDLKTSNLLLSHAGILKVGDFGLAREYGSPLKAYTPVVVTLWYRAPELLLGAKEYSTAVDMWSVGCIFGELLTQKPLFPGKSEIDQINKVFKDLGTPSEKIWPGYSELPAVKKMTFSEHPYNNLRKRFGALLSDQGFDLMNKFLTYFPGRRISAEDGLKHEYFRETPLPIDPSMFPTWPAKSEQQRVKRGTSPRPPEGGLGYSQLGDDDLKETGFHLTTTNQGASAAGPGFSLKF

Sequence of Phosphatidylinositol 4,5-bisphosphate 3-kinase catalytic subunit beta isoform (Homo sapiens) (P42338 whole entry, looked up, canonical isoform): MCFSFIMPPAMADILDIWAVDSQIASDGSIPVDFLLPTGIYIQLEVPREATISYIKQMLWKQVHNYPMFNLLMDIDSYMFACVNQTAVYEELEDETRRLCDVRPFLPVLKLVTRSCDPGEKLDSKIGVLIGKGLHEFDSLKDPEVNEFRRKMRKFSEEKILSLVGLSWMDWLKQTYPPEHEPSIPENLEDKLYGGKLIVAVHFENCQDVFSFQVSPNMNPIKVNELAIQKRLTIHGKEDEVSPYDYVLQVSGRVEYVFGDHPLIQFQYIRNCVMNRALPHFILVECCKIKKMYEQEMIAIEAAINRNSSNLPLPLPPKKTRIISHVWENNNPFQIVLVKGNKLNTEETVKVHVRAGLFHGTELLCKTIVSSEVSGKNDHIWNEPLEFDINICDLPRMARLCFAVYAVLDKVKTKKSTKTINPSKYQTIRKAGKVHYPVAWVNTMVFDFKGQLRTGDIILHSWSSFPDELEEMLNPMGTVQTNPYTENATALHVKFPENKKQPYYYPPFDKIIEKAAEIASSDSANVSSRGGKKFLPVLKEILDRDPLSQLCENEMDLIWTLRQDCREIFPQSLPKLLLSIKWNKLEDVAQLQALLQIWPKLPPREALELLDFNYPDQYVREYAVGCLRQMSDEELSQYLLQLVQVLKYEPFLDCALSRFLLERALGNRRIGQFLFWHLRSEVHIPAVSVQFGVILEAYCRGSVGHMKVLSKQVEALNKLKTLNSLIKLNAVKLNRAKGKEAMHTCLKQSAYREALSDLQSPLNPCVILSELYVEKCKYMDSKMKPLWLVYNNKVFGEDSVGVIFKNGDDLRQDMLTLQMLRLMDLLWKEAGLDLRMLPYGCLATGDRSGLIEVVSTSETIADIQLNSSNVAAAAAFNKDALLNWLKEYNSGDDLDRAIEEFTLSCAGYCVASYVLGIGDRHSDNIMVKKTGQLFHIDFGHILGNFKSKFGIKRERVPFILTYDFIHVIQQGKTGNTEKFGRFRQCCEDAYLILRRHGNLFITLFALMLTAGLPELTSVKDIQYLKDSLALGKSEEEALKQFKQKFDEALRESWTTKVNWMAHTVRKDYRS
Sequence of Proto-oncogene tyrosine-protein kinase receptor Ret (Homo sapiens), P07949 [V804L] (P07949 whole entry V804L): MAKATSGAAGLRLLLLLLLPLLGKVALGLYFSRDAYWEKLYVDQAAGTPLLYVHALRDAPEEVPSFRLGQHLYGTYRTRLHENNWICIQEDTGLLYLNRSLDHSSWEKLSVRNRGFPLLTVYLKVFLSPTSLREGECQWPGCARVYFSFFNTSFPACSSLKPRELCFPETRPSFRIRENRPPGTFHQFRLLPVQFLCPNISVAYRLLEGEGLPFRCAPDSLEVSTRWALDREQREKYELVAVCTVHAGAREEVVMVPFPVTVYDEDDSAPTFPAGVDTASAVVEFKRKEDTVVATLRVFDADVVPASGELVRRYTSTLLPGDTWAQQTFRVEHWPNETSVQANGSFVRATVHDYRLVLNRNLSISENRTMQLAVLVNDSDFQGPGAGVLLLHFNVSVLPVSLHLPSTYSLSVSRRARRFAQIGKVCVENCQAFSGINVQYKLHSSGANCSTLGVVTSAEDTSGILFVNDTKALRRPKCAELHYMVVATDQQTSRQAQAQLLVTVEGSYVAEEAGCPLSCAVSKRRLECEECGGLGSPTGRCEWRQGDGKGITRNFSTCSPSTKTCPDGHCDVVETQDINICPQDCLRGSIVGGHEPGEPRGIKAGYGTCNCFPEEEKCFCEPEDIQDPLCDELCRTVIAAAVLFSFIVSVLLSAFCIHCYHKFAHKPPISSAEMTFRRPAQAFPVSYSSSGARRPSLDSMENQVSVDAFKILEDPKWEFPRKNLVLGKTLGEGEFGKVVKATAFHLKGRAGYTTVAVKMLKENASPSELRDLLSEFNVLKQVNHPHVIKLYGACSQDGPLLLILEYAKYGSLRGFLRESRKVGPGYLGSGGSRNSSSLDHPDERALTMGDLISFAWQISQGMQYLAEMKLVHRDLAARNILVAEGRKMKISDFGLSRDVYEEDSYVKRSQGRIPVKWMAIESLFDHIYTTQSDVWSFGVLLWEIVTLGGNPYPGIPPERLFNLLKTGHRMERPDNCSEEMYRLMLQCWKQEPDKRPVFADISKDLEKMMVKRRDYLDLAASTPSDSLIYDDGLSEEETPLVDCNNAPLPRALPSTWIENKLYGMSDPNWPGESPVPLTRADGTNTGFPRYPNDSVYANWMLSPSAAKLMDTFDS
Sequence of Alpha-2B adrenergic receptor (Homo sapiens) (P18089 whole entry): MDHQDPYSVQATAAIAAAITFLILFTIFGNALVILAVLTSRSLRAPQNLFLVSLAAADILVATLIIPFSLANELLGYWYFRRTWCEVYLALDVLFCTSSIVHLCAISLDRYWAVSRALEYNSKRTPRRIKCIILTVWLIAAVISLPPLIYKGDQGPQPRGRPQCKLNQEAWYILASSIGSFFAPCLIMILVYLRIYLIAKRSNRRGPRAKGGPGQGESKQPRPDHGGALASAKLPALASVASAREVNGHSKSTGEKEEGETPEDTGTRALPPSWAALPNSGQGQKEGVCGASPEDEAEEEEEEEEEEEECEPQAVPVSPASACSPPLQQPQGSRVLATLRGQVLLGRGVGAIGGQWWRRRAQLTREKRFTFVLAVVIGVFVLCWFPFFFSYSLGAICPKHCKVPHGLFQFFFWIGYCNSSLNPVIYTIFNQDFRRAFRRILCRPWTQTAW
Sequence of Mitogen-activated protein kinase kinase kinase 19 (Homo sapiens) (Q56UN5 whole entry): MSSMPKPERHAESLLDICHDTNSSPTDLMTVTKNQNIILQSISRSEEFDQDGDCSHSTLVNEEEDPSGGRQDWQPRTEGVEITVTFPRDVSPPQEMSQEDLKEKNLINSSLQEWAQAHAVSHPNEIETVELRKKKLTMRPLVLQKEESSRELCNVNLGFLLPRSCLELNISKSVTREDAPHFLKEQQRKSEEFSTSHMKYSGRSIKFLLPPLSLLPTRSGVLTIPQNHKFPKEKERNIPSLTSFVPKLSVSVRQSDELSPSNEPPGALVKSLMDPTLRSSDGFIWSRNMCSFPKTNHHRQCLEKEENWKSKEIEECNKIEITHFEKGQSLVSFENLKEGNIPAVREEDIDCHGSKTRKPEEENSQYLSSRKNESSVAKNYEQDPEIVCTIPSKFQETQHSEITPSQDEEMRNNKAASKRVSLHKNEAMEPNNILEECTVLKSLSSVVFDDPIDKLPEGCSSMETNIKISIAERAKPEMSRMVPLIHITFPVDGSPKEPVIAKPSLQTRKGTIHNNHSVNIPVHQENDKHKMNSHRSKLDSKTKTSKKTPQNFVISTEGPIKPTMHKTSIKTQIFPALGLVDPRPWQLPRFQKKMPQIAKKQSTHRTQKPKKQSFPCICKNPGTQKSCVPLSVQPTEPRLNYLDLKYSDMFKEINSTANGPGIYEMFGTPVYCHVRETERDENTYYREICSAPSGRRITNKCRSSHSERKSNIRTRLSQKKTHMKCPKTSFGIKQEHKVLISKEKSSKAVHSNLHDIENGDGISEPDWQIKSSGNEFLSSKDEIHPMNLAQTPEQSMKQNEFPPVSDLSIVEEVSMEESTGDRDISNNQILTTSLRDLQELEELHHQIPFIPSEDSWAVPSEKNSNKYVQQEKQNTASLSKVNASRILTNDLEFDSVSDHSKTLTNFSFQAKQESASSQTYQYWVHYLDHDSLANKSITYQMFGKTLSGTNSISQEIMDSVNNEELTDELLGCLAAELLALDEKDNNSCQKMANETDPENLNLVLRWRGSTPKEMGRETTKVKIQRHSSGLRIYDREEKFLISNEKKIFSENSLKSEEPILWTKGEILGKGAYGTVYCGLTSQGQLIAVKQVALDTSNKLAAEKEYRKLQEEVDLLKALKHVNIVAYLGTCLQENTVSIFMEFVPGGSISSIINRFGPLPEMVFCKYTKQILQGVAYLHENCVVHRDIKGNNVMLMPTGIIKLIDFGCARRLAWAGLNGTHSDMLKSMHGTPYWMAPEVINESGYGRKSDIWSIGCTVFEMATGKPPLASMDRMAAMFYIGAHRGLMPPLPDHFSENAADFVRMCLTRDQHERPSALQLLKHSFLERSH
Sequence of Proto-oncogene tyrosine-protein kinase receptor Ret (Homo sapiens) (P07949 whole entry, canonical isoform): as the sequence (P07949 whole entry V804L) above, with L804V counted along it
Sequence of Proto-oncogene tyrosine-protein kinase receptor Ret (Homo sapiens), P07949 [M918T] (P07949 whole entry M918T): as the sequence (P07949 whole entry V804L) above, with L804V, M918T counted along it

CCC(=N\O)/C(C)=C/c1ccc(F)c(C)c1 [A-226]
inactive: residual activity [1] 100% | residual activity [2] 89% | residual activity [3] 89% | residual activity [4] 100% | residual activity [5] 94% | residual activity [6] 84% | residual activity [7] 100% | residual activity [8] 100% | residual activity [9] 100% | residual activity [10] 92% | residual activity [11] 98% | residual activity [12] 100% | inhibition [13] 33.1% | residual activity [14] 93% | residual activity [15] 100% | residual activity [16] 100% | residual activity [17] 71% | residual activity [18] 100% | residual activity [19] 100% | residual activity [20] 100% | residual activity [21] 100% | residual activity [22] 100% | residual activity [23] 93% | residual activity [24] 100% | residual activity [25] 100% | inhibition [26] 15.2% | residual activity [27] 100% | residual activity [28] 99% | residual activity [29] 80% | inhibition [30] -8.35% | residual activity [31] 100% | inhibition [32] 2.77% | residual activity [33] 97% | residual activity [34] 76% | residual activity [35] 100% | residual activity [36] 98% | residual activity [37] 95%

CCC(=N\O)/C(C)=C/c1ccc(F)cc1 [A-079]
inactive: residual activity [1] 76% | residual activity [2] 100% | residual activity [3] 100% | residual activity [4] 92% | residual activity [5] 87% | residual activity [6] 97% | residual activity [7] 100% | residual activity [8] 92% | residual activity [9] 77% | residual activity [10] 100% | residual activity [11] 100% | residual activity [12] 100% | inhibition [13] 15.1% | residual activity [14] 100% | residual activity [15] 75% | residual activity [16] 65% | residual activity [17] 59% | residual activity [18] 100% | residual activity [19] 73% | residual activity [20] 100% | residual activity [21] 100% | residual activity [22] 66% | residual activity [23] 100% | residual activity [24] 80% | residual activity [25] 87% | inhibition [26] 9.24% | residual activity [27] 100% | residual activity [28] 100% | residual activity [29] 87% | inhibition [30] -9.69% | residual activity [31] 99% | inhibition [32] 6.68% | residual activity [33] 100% | residual activity [34] 100% | residual activity [35] 88% | residual activity [36] 66% | residual activity [37] 89%
